# Source: patent US20030013660A1, “Dioxolane analogs for improved inter-cellular delivery” (Shire BioChem Inc., priority 2000, published 2003)
# Columns and labels:
# [1] = test system: CEM/ARAC8C cells; assay: Cellular uptake assay of [3H]nucleoside in nucleoside-transport deficient CEM/ARAC8C cells; type: in vitro ADME
# Experimental: FIG. 1 Comparative uptake of 30 μM [^3H]-troxacitabine in CEM (Panel A) and CEM/ARAC8C (Panel B) cells. [^3H]-Uridine uptake in either the presence or absence of the hENT1 inhibitor, NBMPR or 5 mM non-radioactive uridine was included for comparison as a control substrate.
# [2] = test system: CEM/dCK cells; assay: CellTiter 96 cell proliferation assay (chemosensitivity), 48 h; type: cell-based; settings: read-out: EC50 (50% of the dose response curve), 48 h exposure
# Experimental: (§1) The chemosensitivity of suspension cells lines (e.g., CEM or CEM-derivatives) is assessed using the CellTiter 96 ? proliferation assay. […] Adherent cell lines (e.g., DU145 or DU145^R) are seeded (^˜10^5 cells) in triplicate dishes, 24 h before drug exposure. Growth inhibition is determined by trypsinization and counting cells electronically.
# [3] = test system: CEM/ARAC8C cells; assay: as above; type: cell-based; settings: read-out: EC50 (50% of the dose response curve); CEM/ARAC8C cells, 48 h exposure
# Experimental: as §1
# [4] = test system: CEM cells; assay: as above; type: cell-based
# Experimental: as §1
# [5] = target: T1, hCNT2 (Homo sapiens, UniProt O43868); assay: Uptake by recombinant transporter in transiently transfected HeLa cells; type: in vitro ADME; settings: 10 μM, 100 μM dilazep
# T1 construct: expressed in transfected cells; host or cells: HeLa cells, transient transfection with pcDNA3-hCNT2
# T1 sequence (O43868 1-658): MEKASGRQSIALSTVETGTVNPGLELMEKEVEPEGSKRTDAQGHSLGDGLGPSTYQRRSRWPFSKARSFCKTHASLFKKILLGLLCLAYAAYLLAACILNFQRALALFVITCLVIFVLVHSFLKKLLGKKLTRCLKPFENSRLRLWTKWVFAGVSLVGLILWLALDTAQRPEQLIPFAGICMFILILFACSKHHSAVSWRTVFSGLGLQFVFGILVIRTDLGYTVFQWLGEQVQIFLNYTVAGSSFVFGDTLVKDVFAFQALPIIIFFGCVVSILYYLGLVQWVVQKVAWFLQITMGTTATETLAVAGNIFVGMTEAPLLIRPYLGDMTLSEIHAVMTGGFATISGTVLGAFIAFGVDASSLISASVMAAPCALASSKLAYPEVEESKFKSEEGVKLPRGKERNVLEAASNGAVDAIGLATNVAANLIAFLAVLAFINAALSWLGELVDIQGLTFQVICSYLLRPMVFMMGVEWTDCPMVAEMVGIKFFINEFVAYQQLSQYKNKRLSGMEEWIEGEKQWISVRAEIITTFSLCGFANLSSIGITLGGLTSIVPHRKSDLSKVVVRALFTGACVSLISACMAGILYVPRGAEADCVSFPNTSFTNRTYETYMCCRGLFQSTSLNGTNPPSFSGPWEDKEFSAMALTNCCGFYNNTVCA
# Experimental: (§2) Transport assays were conducted in the presence of the equilibrative transport inhibitor, 100 μM dilazep and either in the presence ( ? ) or absence (▴) of […].sodium, and compared to HeLa cells transiently transfected with the empty vector control plasmic (▾).
# (§3) Cancer Res., 56: 4187-4191.
# (§4) Expression plasmids encoding recombinant hCNT1 and hCNT2 are prepared using conventional methods. […] The expression vectors are separately introduced into actively proliferating HeLa cells, following conventional methods. See, e.g., Fang et al (1996).
# (§5) Recombinant hCNT1 and hCNT2 were separately introduced into HeLa cells by transient transfection of pcDNA3 plasmids containing the coding sequences of the relevant nucleoside transporter protein. […] Uptake of 10 μM [^3H]troxacitabine was not mediated either by hCNT1 or by hCNT2. Troxacitabine uptake by cib-activity (hCNT3) in differentiated HL-60 cells: […]
# [6] = target: T2, hCNT1 (Homo sapiens, UniProt O00337); assay: as above; type: in vitro ADME; settings: 10 μM, 100 μM dilazep
# T2 construct: expressed in transfected cells; host or cells: HeLa cells, transient transfection with pcDNA3-hCNT1
# T2 sequence (O00337 1-649): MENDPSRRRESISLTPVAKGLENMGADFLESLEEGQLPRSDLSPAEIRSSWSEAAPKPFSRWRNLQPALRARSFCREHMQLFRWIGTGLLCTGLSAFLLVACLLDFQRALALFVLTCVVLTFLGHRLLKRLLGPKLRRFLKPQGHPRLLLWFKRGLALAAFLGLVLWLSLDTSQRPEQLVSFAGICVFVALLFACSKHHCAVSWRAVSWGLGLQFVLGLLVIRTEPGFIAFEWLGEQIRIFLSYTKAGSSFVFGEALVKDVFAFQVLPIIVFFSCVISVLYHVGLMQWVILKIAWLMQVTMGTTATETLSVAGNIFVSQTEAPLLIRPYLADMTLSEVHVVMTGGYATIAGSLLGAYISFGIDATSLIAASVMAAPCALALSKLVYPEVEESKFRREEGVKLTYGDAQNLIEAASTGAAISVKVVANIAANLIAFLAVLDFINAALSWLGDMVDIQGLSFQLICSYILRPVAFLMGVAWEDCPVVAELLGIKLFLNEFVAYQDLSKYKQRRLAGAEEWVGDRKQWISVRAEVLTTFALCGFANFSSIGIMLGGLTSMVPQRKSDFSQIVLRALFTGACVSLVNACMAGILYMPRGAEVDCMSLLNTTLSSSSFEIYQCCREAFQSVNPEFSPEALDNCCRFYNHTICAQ
# Experimental: as §2, §3, §4, §5
structure (smiles),measurement,setting,value
"Nc1ccn([C@@H]2CO[C@H](CO)O2)c(=O)n1 [Troxacitabine, troxacitabine]",uptake of [3H]nucleoside over the 6-min time course,[1],taken up to a lesser degree
same,EC50,[2],> 100000 nM
same,EC50,[3],1180 nM
same,EC50,"[4]; Homo sapiens, CCRF-CEM, read-out: EC50 (50% of the dose response curve), CEM cells, 48 h exposure",160 nM
same,effect of the es transport inhibitor NBMPR on resistance of CEM cells,[4]; presence of NBMPR,not
same,uptake mediated by hCNT2,[5],not mediated
same,uptake mediated by hCNT1,[6],not mediated
